# Test results as given in article PMC12490239, “Combining BET inhibition with SMAC mimetics restricts tumor growth and triggers immune surveillance in preclinical cancer models” (Cell Reports Medicine, 2025).
# What was measured:
# Test in all cases: cells
# Design in all cases: CellTiter-Glo 2.0 luminescence proliferation/viability assay, single agents, human tumour cell line panel
# [1] = tested on: HCC1833; details: 96 h; single agent; read-out: IC50 SMACm
# Summary of the method: (§1)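 Human tumour cell lines were seeded into assay plates and held at 37°C with 5% CO2 for twenty-four hours, then exposed in triplicate to rising concentrations of the SMAC mimetic, from 4.5 nM to 10 μM, with DMSO as control. After 96 h, viability was read as CellTiter-Glo2.0 luminescence to derive single-agent IC50 values.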
# [2] = tested on: LS-123; details: Homo sapiens, LS-123, 96 h; single agent; read-out: IC50 SMACm
# Summary of the method: as §1
# [3] = tested on: SNU977; details: 96 h; single agent; read-out: IC50 SMACm
# Summary of the method: as §1
# [4] = tested on: HCC-15; details: HCC15, 96 h; single agent; read-out: IC50 SMACm
# Summary of the method: as §1
# [5] = tested on: SK-LU-1; details: Homo sapiens, SK-LU-1, 96 h; single agent; read-out: IC50 SMACm
# Summary of the method: as §1
# [6] = tested on: KM12C; details: Homo sapiens, KM12C, 96 h; single agent; read-out: IC50 SMACm
# Summary of the method: as §1
# [7] = tested on: MKN74; details: Homo sapiens, MKN-74, 96 h; single agent; read-out: IC50 SMACm
# Summary of the method: as §1
# [8] = tested on: C80; details: 96 h; single agent; read-out: IC50 SMACm
# Summary of the method: as §1
# [9] = tested on: NCI-H358; details: Homo sapiens, NCI-H358, 96 h; single agent; read-out: IC50 SMACm
# Summary of the method: as §1
# [10] = tested on: HUTU80; details: Homo sapiens, HuTu80, 96 h; single agent; read-out: IC50 SMACm
# Summary of the method: as §1
# [11] = tested on: COLO-320-HSR; details: Homo sapiens, COLO-320-HSR, 96 h; single agent; read-out: IC50 SMACm
# Summary of the method: as §1
# [12] = tested on: KM12SM; details: 96 h; single agent; read-out: IC50 SMACm
# Summary of the method: as §1
# [13] = tested on: HT-29; details: Homo sapiens, HT-29, 96 h; single agent; read-out: IC50 SMACm
# Summary of the method: as §1
# [14] = tested on: NCI-H1838; details: Homo sapiens, NCI-H1838, 96 h; single agent; read-out: IC50 SMACm
# Summary of the method: as §1
# [15] = tested on: SNU1040; details: 96 h; single agent; read-out: IC50 SMACm
# Summary of the method: as §1
smiles,measurement,setting,value
"CN[C@@H](C)C(=O)Nc1ccc(-c2c(-c3cccnc3OC)nc3cc(C)ccn23)c(C#Cc2ccc3c(C)nccc3c2)n1 [SMACm, BI 891065]",IC50,[1],0.102 µM
same,IC50,[2],4.86 µM
same,IC50,[3],2.88 µM
same,IC50,[4],4.6 µM
same,IC50,[5],0.495 µM
same,IC50,[6],5.22 µM
same,IC50,[7],4.57 µM
same,IC50,[8],1.81 µM
same,IC50,[9],> 10 µM
same,IC50,[10],1.36 µM
same,IC50,[11],2.86 µM
same,IC50,[12],4.31 µM
same,IC50,[13],4.24 µM
same,IC50,[14],4.25 µM
same,IC50,[15],3.59 µM
